Columns and labels:
[1] = target: T1, rALRase (recombinant alanine racemase of Lactobacillus sakei ZH-2) (Latilactobacillus sakei, UniProt Q38V64, T117A); experiment: racemase activity with and without PLP, D-amino acid oxidase/LDH-coupled; format: biochemical; settings: L-alanine substrate; 10 mM PLP in the standard assay, pH 9.0
T1 construct: gene alr; pCold I in E. coli BL21, His-tag purified, tag removed with Factor Xa

purified protein = substrate: C[C@H](N)C(=O)O; experiment: purified protein; settings: L-alanine 0.1-50 mM, L to D direction, standard assay 50 mM CHES-NaOH pH 9.0, 10 mM PLP, 37 °C

Cc1ncc(COP(=O)(O)O)c(C=O)c1O [pyridoxal phosphate]
fold activity with PLP versus without [1]: 1.5–2 times

B1: rALRase (recombinant alanine racemase of Lactobacillus sakei ZH-2) (Latilactobacillus sakei subsp. sakei 23K; T117A) (protein)
chain: MTVGYLRPTRILVDQNAIYENIQNELKHLEGTDTVIFPVLKANAYGHGLIPVAEAAQAAGAAGFCVALLDEALALRRANFTEPILVLGITQPSEIELAAANQISLTVGSLEWLQEAAAIAQQVPYLHPVPIHLSIDSGMGRIGMRDEAELLAAYTFIKAHSDYFDFEGVFTHFATADDPDDTYFKEQSARFNQLMTALPERPRFVHVSNSATSLWHAACNGNIIRMGISLYGLNPSGNAIPDLPYPLKQALGIESELVFVKQVAAGTKIGYGATYEASEGEWIGTIPMGYADGWLRRMQGSTVLVDGQRCEIVGRICMDQMMIRLPKRYPVGTKVVFVGKSGDDEITLQEVADYADTIHYEIICDLSDRIPRVYTGLNEH
Km (purified protein): 1320 µM
